Experimental data from patent US20160309708A1, “POLYCARBOXYLIC ACID ESTER ALKYL DERIVED FROM BRANCHED AND STRAIGHT ALCOHOL OF PLANT ORIGIN, AND USE OF AN ALKYL ESTER IN AGROCHEMICAL FORMULATIONS” (priority 2013, published 2016).

Assay: Solubility limit of active ingredients in the alkyl esters of polycarboxylic acids at 25° C.
Assay type: physicochemical
Settings: under agitation, solvent: alkyl esters of polycarboxylic acids

Going from `Cc1c(COC(=O)[C@@H]2[C@H](/C=C(\Cl)C(F)(F)F)C2(C)C)cccc1-c1ccccc1` (racemic) [BIFENTRIN, Bifenthrin] to `CCOP(=S)(OCC)Oc1nc(Cl)c(Cl)cc1Cl` [CHLORPYRIFOS, Chlorpyrifos], the “solubility limit in alkyl esters of polycarboxylic acids of this invention” value (from here on “solubility limit in alkyl esters”) rises from 702 GRAMS PER LITER to 900 GRAMS PER LITER.

First: CCCC1COC(Cn2cncn2)(c2ccc(Cl)cc2Cl)O1 (centres unmarked) [PROPICONAZOLE, Propiconazole]
Second: CC(C)(C)C(O)(CCc1ccc(Cl)cc1)Cn1cncn1 (centres unmarked) [TEBUCONAZOLE, Tebuconazole]
The “solubility limit in alkyl esters” value of the first is higher: 1568 GRAMS PER LITER for the first, 240 GRAMS PER LITER for the second.

With Abamectin the “solubility limit in alkyl esters” value was 116 GRAMS PER LITER.
